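1) Cells in 96-well plates. 2) Compound, 48 h, 5 concentrations. 3) Linear interpolation between surrounding doses. 4) Unreached endpoint = highest concentration. The concentration for 50% growth inhibition is given as GI50. The concentration for full growth arrest is given as TGI.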

Experimental findings from PubChem BioAssay (NCI) are described below.

Among the test systems are NCI-H522 lung; TK-10 renal; SK-MEL-2 melanoma; SN12C renal; SF-539 CNS; OVCAR-8 ovarian; SW-620 colon; EKVX NSCLC; SK-MEL-5 melanoma.
Experiment in all cases: NCI tumour cell line growth inhibition, 48 h

On to `CCOC(=O)NC(=O)c1cn(CCN2CCN(c3ncnc4nc[nH]c34)CC2)c(=O)[nH]c1=O`, for which the TGI in the assay on NCI-H522 lung, in the assay on TK-10 renal, with SK-MEL-2 melanoma, with SN12C renal, with SF-539 CNS and with OVCAR-8 ovarian was greater than 100 µM each time. In addition, the TGI with SW-620 colon, in the assay with EKVX NSCLC and in the assay with SK-MEL-5 melanoma was greater than 100 µM throughout.

Consider `CN(/N=C/c1cccc2cccnc12)c1ccccc1`, for which the TGI with NCI-H522 lung, in the assay on TK-10 renal, in the assay on SK-MEL-2 melanoma, with SN12C renal, in the assay on SF-539 CNS and in the assay on OVCAR-8 ovarian was greater than 100 µM in each case. For the same compound, the TGI in the assay with SW-620 colon, in the assay on EKVX NSCLC and with SK-MEL-5 melanoma was greater than 100 µM in each case.

In the case of `C=C1c2[nH]c3c([N+](=O)[O-])c(OC)ccc3c2CCN1C(C)=O`, the TGI in the assay on NCI-H522 lung, with TK-10 renal, in the assay on SK-MEL-2 melanoma, with SN12C renal, with SF-539 CNS and in the assay with OVCAR-8 ovarian was greater than 100 µM in each case. In addition, the TGI with SW-620 colon and with EKVX NSCLC was greater than 100 µM in each case.

Take `Cc1ccc(Nc2nc(C)c(C(/C=C/c3ccc(/C=C/C(=N/NC(=O)C[n+]4ccccc4)c4sc(Nc5ccc(C)cc5[N+](=O)[O-])nc4C)cc3)=N\NC(=O)C[n+]3ccccc3)s2)c([N+](=O)[O-])c1`: the TGI in the assay on NCI-H522 lung, with TK-10 renal, in the assay on SK-MEL-2 melanoma, in the assay with SN12C renal, in the assay with SF-539 CNS and with OVCAR-8 ovarian was greater than 100 µM in each case. The TGI in the assay on SW-620 colon and in the assay on EKVX NSCLC was greater than 100 µM throughout.

As to `Cc1[nH]c2ccccc2c1C1Cc2ccccc2N1C(=O)/C=C/C(=O)O` (centres undefined), the TGI with NCI-H522 lung, in the assay on TK-10 renal, with SK-MEL-2 melanoma, with SN12C renal, with SF-539 CNS and in the assay with OVCAR-8 ovarian was greater than 100 µM throughout. Besides, the TGI with SW-620 colon, with EKVX NSCLC and in the assay with SK-MEL-5 melanoma was greater than 100 µM each time.

On to `COC(=O)c1cc(Cl)ccc1NC(=O)c1ccc([N+](=O)[O-])cc1`, for which the TGI in the assay on TK-10 renal was 40.6 µM; with SK-MEL-2 melanoma, greater than 100 µM; in the assay with SF-539 CNS, 49.1 µM; with OVCAR-8 ovarian, 63.9 µM; in the assay on SW-620 colon, greater than 100 µM; in the assay on EKVX NSCLC, greater than 100 µM. In the assay on SK-MEL-5 melanoma, this compound returned a TGI greater than 100 µM.

Take `COc1ccc2ccccc2c1C1OC(=O)c2ccccc21` (centres undefined): the TGI in the assay with NCI-H522 lung, with TK-10 renal, with SN12C renal, with SF-539 CNS, with OVCAR-8 ovarian and in the assay on SW-620 colon was greater than 100 µM throughout. The TGI with EKVX NSCLC and with SK-MEL-5 melanoma was greater than 100 µM throughout.

In the case of `COc1cc(C(=O)NC2CCN(C)CC2)c(F)cc1Nc1ncc2c(n1)N(C1CCCC1)CC(F)(F)C(=O)N2C`, the GI50 is less than 0.01 µM with NCI-H522 lung; less than 0.01 µM with SK-MEL-2 melanoma; 0.0604 µM with SN12C renal; less than 0.0181 µM in the assay with SF-539 CNS; 0.0338 µM in the assay on OVCAR-8 ovarian; less than 0.01 µM in the assay on SW-620 colon. The GI50 with SK-MEL-5 melanoma was less than 0.022 µM. Moreover, the TGI in the assay with NCI-H522 lung was less than 0.0208 µM; with TK-10 renal, 12.6 µM; in the assay on SK-MEL-2 melanoma, 3.4 µM; in the assay with SN12C renal, 14.4 µM; with SF-539 CNS, 1.3 µM; in the assay with OVCAR-8 ovarian it was 18.7 µM. The TGI with SW-620 colon was found to be 11.5 µM; with SK-MEL-5 melanoma, 2.32 µM.

For the compound `CC1=C2C(=CC(C)(C)C2O)C(=O)C(C)(O)C12CC2` (centres undefined), the TGI in the assay on NCI-H522 lung turned out to be 0.017 µM; in the assay with TK-10 renal, 0.14 µM; with SK-MEL-2 melanoma it was 0.0283 µM; with SN12C renal, 0.146 µM; with SF-539 CNS, 0.0604 µM; with OVCAR-8 ovarian it was 0.0499 µM. Also, the TGI in the assay on SW-620 colon worked out at 0.0752 µM; in the assay on EKVX NSCLC it was 0.144 µM; in the assay with SK-MEL-5 melanoma, 0.0219 µM. Further, the GI50 with SK-MEL-2 melanoma was 0.0108 µM.

Regarding `C[Si](C)(C)c1ccc(-c2sc(-c3ccc([Si](C)(C)C)s3)c3c2C[Si]2(C3)Cc3c(-c4ccc([Si](C)(C)C)s4)sc(-c4ccc([Si](C)(C)C)s4)c3C2)s1`, the TGI in the assay with NCI-H522 lung, with TK-10 renal, in the assay on SN12C renal, in the assay with SF-539 CNS, in the assay with OVCAR-8 ovarian and in the assay on SW-620 colon was greater than 100 µM throughout. Further, the TGI in the assay on SK-MEL-5 melanoma is greater than 100 µM.

Turning to `Cc1ccc(C)c(NC(=O)CC/C(=N\NC(=O)c2c(O)ccc3ccccc23)C(C)C(=O)c2ccc(O)cc2)c1` (centres undefined), the TGI is 42.6 µM in the assay with NCI-H522 lung; greater than 100 µM with TK-10 renal; greater than 100 µM in the assay with SK-MEL-2 melanoma; greater than 100 µM in the assay with SN12C renal; 80.5 µM with SF-539 CNS; 75.9 µM in the assay on OVCAR-8 ovarian. Besides, the TGI with SW-620 colon and in the assay on SK-MEL-5 melanoma was greater than 100 µM throughout.

With `CCOC(=O)NC(=O)c1cn(CCCCCCOC(=O)NCCCCCCNC(=O)OCCCCCCn2cc(C(=O)NC(=O)OCC)c(=O)[nH]c2=O)c(=O)[nH]c1=O`, the TGI in the assay on NCI-H522 lung, in the assay on SK-MEL-2 melanoma, with SN12C renal, in the assay with SF-539 CNS, in the assay on OVCAR-8 ovarian and with SW-620 colon was greater than 100 µM each time. For the same compound, the TGI with EKVX NSCLC and in the assay on SK-MEL-5 melanoma was greater than 100 µM in each case.

As for `O=S1(=O)OCCOS(=O)(=O)C1Cc1ccccc1`, the TGI in the assay with NCI-H522 lung is greater than 100 µM; in the assay with TK-10 renal it was greater than 100 µM; with SN12C renal, greater than 100 µM; with SF-539 CNS it was 95.6 µM; with OVCAR-8 ovarian it was greater than 100 µM; in the assay with SW-620 colon it was greater than 100 µM. In the assay on EKVX NSCLC, the TGI was greater than 100 µM.

Regarding `C/C(CC(=O)Nc1ccc(Cl)cc1)=N\NC(N)=S`, the TGI in the assay on NCI-H522 lung, with TK-10 renal, with SK-MEL-2 melanoma, with SF-539 CNS, with OVCAR-8 ovarian and with SW-620 colon was greater than 100 µM each time. Further, the TGI in the assay on EKVX NSCLC and with SK-MEL-5 melanoma was greater than 100 µM in each case.

`COC(=O)C1=C(c2cc(OC)c(OC)c(OC)c2)OC(c2ccc(OC)c(OC)c2)C1` (centres undefined): the TGI is greater than 100 µM with TK-10 renal; greater than 100 µM in the assay on SK-MEL-2 melanoma; greater than 100 µM in the assay on SN12C renal; greater than 100 µM in the assay on SF-539 CNS; greater than 100 µM with OVCAR-8 ovarian; 87 µM with SW-620 colon. The TGI with EKVX NSCLC was greater than 100 µM; in the assay with SK-MEL-5 melanoma, 93.7 µM.
